Values of other authors in patent US11986479B2 (priority 2022, dated 2024).
Where two headings read alike, the source gives them in different places.

Legend:
[1] = not given; remark: listed apart in the source
[2] = not given; remark: listed apart in the source

Question: What does the source list for `Cn1cnc([N+](=O)[O-])c1Sc1ncnc2nc[nH]c12` [Azathoprine, 1H-Purine, 6-[(1-methyl-4-nitro-1H-imidazol-5-yl)thio]-]?
Answer: stability in the presence of sulfhydryl compounds (cysteine, glutathione, hydrogen sulfide): Conversion to mercaptopurine also occurs; stability in solution (excess sodium hydroxide (0.1N), especially on warming): hydrolysis to mercaptopurine occurs; stability in solution (neutral or acid pH): stable; solubility in alkali ([1]; solutions of alkali hydroxides / one molar equivalent of alkali): may be dissolved; solubility in water ([1]; water): insoluble

Question: For `C[C@@H]1C[C@H]2[C@@H]3CCC4=CC(=O)C=C[C@]4(C)[C@@]3(F)[C@@H](O)C[C@]2(C)[C@@]1(O)C(=O)CO` [Dexamethasone, 9-fluoro-11β,17,21-trihydroxy-16α-methylpregna-1,4-diene-3,20-dione], which stability in air (air) is on record?
Answer: The stability in air was “stable”.

Question: What about the solubility in water ([1]; water) of the same molecule?
Answer: The solubility in water was “practically insoluble”.

Question: For `CCN(CC)C(=S)SSC(=S)N(CC)CC` [Disulfiram, bis(diethylthiocarbamoyl) disulfide], which soluble in alcohol ([1]; alcohol) is on record?
Answer: The soluble in alcohol was “about 3.8 g in 100 mL”.

Question: And the soluble in water ([1]; water)?
Answer: Its soluble in water is “about 20 mg in 100 mL”.

Question: What about the “diarrhea in list of adverse reactions” value ([2]; in vivo) of the same molecule?
Answer: Its value is “not mentioned”.

Question: For `Sc1ncnc2nc[nH]c12` [Mercaptopurine, 6H-purine-6-thione, 1,7-dihydro-, monohydrate], which solubility in ether ([1]; ether) is on record?
Answer: The solubility in ether was “practically insoluble”.

Question: And the “patients who experienced diarrhea” value ([2]; leukemia patients)?
Answer: Its value is 9%.
